Measured values from patent US20060205716A1, “Microbicidal agents” (priority 2003, published 2006).

Legend:
[1] = tested on: yeasts (Rhodotorula rubra); experiment: Preservation of a cooling lubricant emulsion, repeated weekly contamination: yeasts; conditions: limit <10^3-4 CFU/g, maximum test duration 10 weeks
Experimental: (§1) What was examined was the preserving action of CMC/MIT mixtures according to the invention in a cooling lubricant emulsion (5% mineral oil/emulsifier concentrate/95% water). To this end, biocide-free and perserved samples of a cooling lubricant emulsion were repeatedly, at weekly intervals, exposed to microbiological stress using the following microorganisms:
Yeasts: • Rhodotorula rubra
(§2) In each case, the bacteria were added separately from the yeasts/moulds.
(§3) The maximum duration of the test was 10 weeks (=10 contaminations), if the following limits were not exceeded during the weekly determination of the number of germs:
(§4) yeasts/moulds<10^3-4 CFU/g.

[2] = tested on: bacteria (Pseudomonas aeruginosa, P. fluorescens, P. oleovorans, P. rubescens, P. stutzeri, Alcaligenes faecalis, Citrobacter freundii, Corynebacterium sp); experiment: Preservation of a cooling lubricant emulsion, repeated weekly contamination: bacteria; conditions: limit <10^6 CFU/g, maximum test duration 10 weeks
From the text: as §1
Bacteria: • Pseudomonas aeruginosa • Pseudomonas fluorescens • Pseudomonas oleovorans • Pseudomonas rubescens • Pseudomonas stutzeri • Alcaligenes faecalis • Citrobacter freundii • Corynebacterium sp
as §2
The maximum duration of the test was 10 weeks (=10 contaminations), if the following limits were not exceeded during the weekly determination of the number of germs: […]

Pseudomonas fluorescens = experiment: Minimum inhibitory concentration / synergism test with test germ Pseudomonas fluorescens; type: cell-based; conditions: pure active compound applied on its own
From the text: The observed synergism of the mixtures according to the invention can be determined by the following mathematical approach (cf. F. C. Kull, P. C. Elisman, H. D. Sylwestrowicz and P. K. Mayer, Appl. Microbiol. 9, 538 (1961): [formula] where • Qa=the amount of component A in the active compound mixture required to achieve the desired effect, i.e. no microbial growth, • QA=the amount of component A which, applied on its own, suppresses the growth of the microorganisms, • Qb=the amount of component B in the active compound mixture which suppresses the growth of the microorganisms, and • […]=the amount of component B which, applied on its own, suppresses the growth of the microorganisms.
A synergistic index of SI<1, in accordance with the above formula, indicates a synergistic effect for the active compound mixture.
The minimum inhibitory concentration of the active compound combinations listed in Table 1 were examined using the test germ Pseudomonas fluorescens

[3] = tested on: moulds (Acremonium strictum, Fusarium solani, Geotrichum candidum); experiment: Preservation of a cooling lubricant emulsion, repeated weekly contamination: moulds; conditions: limit <10^3-4 CFU/g, maximum test duration 10 weeks
Experimental: as §1
Moulds: • Acremonium strictum • Fusarium solani • Geotrichum candidum
as §2, §3, §4

[4] = 0.15% CMC based on cooling lubricant emulsion
[5] = 0.01% MIT based on cooling lubricant emulsion

SMILES	number of weeks without colonization: yeasts [1, 4] [weeks]	number of weeks without colonization: bacteria [2, 4] [weeks]	Amount of pure active compounds required to suppress growth (QA, QB) (Pseudomonas fluorescens)	number of weeks without colonization: moulds [3, 4] [weeks]	number of weeks without colonization: yeasts [1, 5] [weeks]	number of weeks without colonization: bacteria [2, 5] [weeks]	number of weeks without colonization: moulds [3, 5] [weeks]
Cc1cc(O)ccc1Cl [CMC, p-chloro-m-cresol]	10	3	150 (QA) ppm	10	–	–	–
Cn1sccc1=O [MIT, 2-methyl-2H-isothiazol-3-one]	–	–	5 (QB) ppm	–	8	8	5
